Columns and labels:
[1] = tested on: isolated mitochondria (HeLa and RS4;11 cells); experiment: Graphene sensor measurement of extra-mitochondrial buffer pH of tethered isolated mitochondria; set-up: species or system mammalian
Source text: Here, is presented an electronic method to detect extra-mitochondrial pH of isolated mitochondria, based on tethering the mitochondria to one-atom thin graphene. The mitochondria are tethered via graphene bound antibodies which recognize the mitochondrial outer membrane protein, TOM20. Graphene is an excellent conductor and changes in the pH surrounding the mitochondria can change the graphene conductance and be detected electrically. Being optically transparent, the graphene layer also permits optical interrogation of the mitochondria concurrent with analysis of ionic changes.
An isolation buffer containing 225 mM mannitol, 75 mM sucrose, 0.5 mM EGTA, 20 mM HEPES, 0.5% (w/v) BSA, 1× protease inhibitor, pH 7.2 with 1 M KOH was used. […]
After mitochondria isolation, about 6 μg of mitochondrial protein of isolated mitochondria was loaded to a graphene device and incubated for 15 min at room temperature. […] The electrical measurement of Ids versus time and the fluorescence time-lapse measurement of TMRE signal were collected. […] In contrast, fluorescence images were taken once every 5 s for the experiments with CCCP or every 2 min for the experiments with BIM-BH3. […]
Control experiments were carried out in a similar manner with the only difference being the lack of isolated mitochondria. Software was used to analyze all electrical data and the fluorescence data that were exported from ImageJ software. […]

[2] = tested on: isolated mitochondria (HeLa and RS4;11 cells); experiment: TMRE fluorescence measurement of inner membrane potential (ΔΨm) of tethered isolated mitochondria; set-up: species or system mammalian; conditions: TMRE signal
Protocol: Before isolation, the confluent cells were stained with 100 nM MITOTRACKER™ Green FM and 40 nM TMRE for 1 hour. Subsequent isolation steps used solutions with 40 nM TMRE because TMRE is a potentiometric dye, which fluctuates in and out of the mitochondria depending on their inner membrane potential. 40 nM was determined as the optimal concentration. Using an inverted microscope with two LED excitation sources (490 nm & 565 nm the red and green fluorescence signals from the MITOTRACKER™ and TMRE were visualized with 20× objective at 200 μm×300 μm, exposure time one second. To process and analyze the images, ImageJ software was used. For the entire field of view analysis, fluorescence intensity was measured from the field of view. In contrast, for single mitochondrion analysis, regions of interest enclosing the mitochondria were defined and three more identical copies of that region of interest were used to define the background noise. Fluorescence signal of the mitochondria was assigned as the measured signal subtracting the noise average. […] The electrical measurement of Ids versus time and the fluorescence time-lapse measurement of TMRE signal were collected. […] In contrast, fluorescence images were taken once every 5 s for the experiments with CCCP or every 2 min for the experiments with BIM-BH3. […]

[3] = exogenous agent, after BIM-BH3 induced MOMP

N#CC(C#N)=NNc1cccc(Cl)c1 [CCCP]
buffer pH (pHbuffer) ([1]; agent added to mitochondria on graphene device in KCl buffer with 5 mM succinate, 2 μM rotenone): increase | ΔΨm ([2]; agent added to mitochondria on graphene device in KCl buffer): decrease

cytochrome c [cytc]
buffer acidification after BIM-BH3 induced MOMP [1, 3]: blocks buffer acidification | ΔΨm after BIM-BH3 induced MOMP [2, 3]: rescues
